≈ marks a conversion by molar mass, not a printed value.
Legend:
physchem = type: physicochemical; conditions: for solubility thermodynamic: 25 °C, thermodynamic from solid
Method: The maximum quantity of Compound I that can be completely dissolved at 25° C. in the several aqueous buffers and other solvents was evaluated using HPLC. […] Samples were injected with a 250 μg/ml nominal concentration. For samples of unknown concentration, dilutions were made to target the linear range of the method. All samples were quantified based on a linear standard curve. Measurements were performed by Pharmatek Laboratories, Inc. (San Diego, Calif.) with industry-standard quality controls.

TRAMP-C2 tumor cells = assay: Orthotopic prostate cancer survival study, TRAMP-C2 cells in C57BL/6 mice; type: in vivo, mouse; conditions: 1 mg/kg per oral plus castration; p<0.001
Method: Orthotopic injection of PTEN-P2 and TRAMP-C2 for survival studies: Mice were anaesthetized and an incision was made through the skin and peritoneum. A total of 30,000 cells were suspended in Matrigel and slowly injected into the dorsal lobe of the prostate using a 30-gauge needle. Matrigel was used to prevent the leakage of cells out of the site of injection. A Q-tip was held over the injection site for 1 min to prevent bleeding and spill after removal of the needle. The abdominal wall was closed by surgical silk sutures.
Fox1/Nu or C57BL/6J mice were used as recipients for PTEN-P2 and TRAMP-C2 cells, respectively. Mice were surgically castrated 6 weeks later, when tumors were established, and Compound I treatment was initiated 4-5 days later. The number of days mice lived following treatment initiation was recorded for each animal. A few mice were found dead upon daily inspection, while others were euthanized in agreement with our IACUC regulations, including mice showing weight losses of more than 15% and mice showing signs of pain though posture and lack of grooming were euthanized.
A second study, shown in FIG. 6, used cells derived from the transgenic adenocarcinoma of the mouse prostate (TRAMP) model. The TRAMP model was generated through prostate-specific expression of the large T antigen of SV40 in the prostate epithelium. […]

For CC1=CC(=O)c2c(O)cccc2C1=O [Compound I, 5-hydroxy-2-methylnaphthalene-1,4-dione], the “Solubility in Carrier A” value (physchem) was “well soluble”, the “Solubility in aqueous media” value (physchem) was “mostly insoluble” and the “Solubility in mixtures of triacylglycerols” value (physchem) was “good solubility”. The “Solubility in organic solvents” value (physchem) was “good solubility”, the solubility thermodynamic (physchem; pH 1, aqueous buffer) was 48 µg/mL (≈ 255 µM) and the solubility thermodynamic (physchem; pH 2, aqueous buffer) was 45 µg/mL (≈ 239 µM). The solubility thermodynamic (physchem; pH 3, aqueous buffer) was 49 µg/mL (≈ 260 µM), the solubility thermodynamic (physchem; pH 4, aqueous buffer) was 16 µg/mL (≈ 85 µM) and the solubility thermodynamic (physchem; pH 5, aqueous buffer) was 46 µg/mL (≈ 244 µM). For the same compound, the solubility thermodynamic (physchem; pH 6, aqueous buffer) was 44 µg/mL (≈ 234 µM), the solubility thermodynamic (physchem; pH 7, aqueous buffer) was 49 µg/mL (≈ 260 µM) and the solubility thermodynamic (physchem; pH 8, aqueous buffer) was 43 µg/mL (≈ 229 µM). It also gave a solubility thermodynamic (physchem; pH 9, aqueous buffer) of 75 µg/mL (≈ 399 µM), a solubility thermodynamic (physchem; pH 10, aqueous buffer) of 240 µg/mL (≈ 1280 µM) and a solubility thermodynamic (physchem; water) of 72 µg/mL (≈ 383 µM). The “Longer survival of 50% of the combination-treated mice vs castration alone” value (TRAMP-C2 tumor cells) was 200 days.

Reference: US20180221306A1, “PHARMACEUTICAL COMPOSITIONS OF 5-HYDROXY-2-METHYLNAPHTHALENE-1,4-DIONE” (PellFiCure Pharmaceuticals, Inc., priority 2016, published 2018)
